This passage reports IC50 results from patent US9630965B2, “Fused amino pyridine as HSP90 inhibitors” (Curis, Inc., priority 2007, dated 2017).

Bounds are passed on as bounds.

For assay [1], the target named is T1, HSP90 (Homo sapiens (Human), UniProt P07900). The assay can be described thus: HSP90 competition binding (fluorescence polarization) assay with FITC labeled GM. The conditions noted are these: 24 hours of incubation at 4° C. From the text: (b) HSP90 Competition Binding (Fluorescence Polarization) Assay.
A fluorescein isothiocyanate (FITC) labeled GM was purchase from InvivoGen (ant-fgl-1). The interaction between HSP90 and labeled GM forms the basis for the fluorescence polarization assay. A free and fast-tumbling FITC labeled GM emits random light with respect to the plane of polarization plane of excited light, resulting in a lower polarization degree (mP) value. When GM is bound to HSP90, the complex tumble slower and the emitted light is polarized, resulting in a higher mP value. […] The assay buffer contained 20 mM HEPES (pH 7.3), 50 mM KCl, 1 mM DTT, 50 mM MgCl2, 20 mM Na2MoO4, 0.01% NP40 with 0.1 mg/ml bovine gamma-globulin.

In assay [2] the target is T1, HSP90. In words: Hsp90 chaperone assay (refolding of heat-denatured luciferase). Format: biochemical. As for the experimental part:
(a) An In Vitro Assay which Determines the Ability of a Test Compound to Inhibit Hsp90 Chaperone Activity.
The Hsp90 chaperone assay was performed to measure the ability of HSP90 protein to refold the heat-denatured luciferase protein. HSP90 was first incubated with different concentrations of test compounds in denaturation buffer (25 mM Tris, pH7.5, 8 mM MgSO4, 0.01% bovine gamma globulin and 10% glycerol) at room temperature for 30 min. Luciferase protein was added to denaturation mix and incubated at 50° C. for 8 min. The final concentration of HSP90 and luciferase in denaturation mixture were 0.375 μM and 0.125 μM respectively. A 5 μl sample of the denatured mix was diluted into 25 μl of renaturation buffer (25 mM Tris, pH7.5, 8 mM MgSO4, 0.01% bovine gamma globulin and 10% glycerol, 0.5 mM ATP, 2 mM DTT, 5 mM KCl, 0.3 μM HSP70 and 0.15 μM HSP40). The renaturation reaction was incubated at room temperature for 150 min, followed by dilution of 10 μl of the renatured sample into 90 μl of luciferin reagent (Luclite, PerkinElmer Life Science). The mixture was incubated at dark for 5 min before reading the luminescence signal on a TopCount plate reader (PerkinElmer Life Science).

For `C#CCCCn1c(Sc2cc3c(cc2Cl)OCO3)nc2c(N)nccc21` [Compound 2, 2-(6-chlorobenzo[d][1,3]dioxol-5-ylthio)-1-(pent-4-ynyl)-1H-imidazo[4,5-c]pyridin-4-amine], the IC50 on HSP90 [1] and on HSP90 [2] was 0.1 to 1 µM throughout.

In the case of `C#CCCCn1c(Sc2cc3c(cc2I)OCO3)nc2c(N)nccc21` [Compound 3, 2-(6-iodobenzo[d][1,3]dioxol-5-ylthio)-1-(pent-4-ynyl)-1H-imidazo[4,5-c]pyridin-4-amine], the results for the IC50 at HSP90 [1] and on HSP90 [2] were below 0.1 µM and 0.1 to 1 µM, respectively.

With `CCCCCn1c(Sc2cc3c(cc2I)OCO3)nc2c(N)nccc21` [Compound 4, 2-(6-iodobenzo[d][1,3]dioxol-5-ylthio)-1-pentyl-1H-imidazo[4,5-c]pyridin-4-amine], at HSP90 [1], the IC50 is 0.1 to 1 µM.

With `C#CCCCn1c(Sc2cc3c(cc2I)OCCO3)nc2c(N)nccc21` [Compound 7, 2-(7-iodo-2,3-dihydrobenzo[b][1,4]dioxin-6-ylthio)-1-(pent-4-ynyl)-1H-imidazo[4,5-c]pyridin-4-amine], the IC50 at HSP90 [1] was in the range of 0.1 to 1 µM.

Molecule `C#CCCCn1c(Sc2ccc3c(c2)CCO3)nc2c(N)nccc21` [Compound 9, 2-(2,3-dihydrobenzofuran-5-ylthio)-1-(pent-4-ynyl)-1H-imidazo[4,5-c]pyridin-4-amine] gave an IC50 on HSP90 [1] above 10 µM.

At HSP90 [1], `C#CCCCn1c(Sc2cc(O)c(O)cc2I)nc2c(N)nccc21` [Compound 16, 4-(4-amino-1-(pent-4-ynyl)-1H-imidazo[4,5-c]pyridin-2-ylthio)-5-iodobenzene-1,2-diol] came in with an IC50 above 10 µM.

With `C#CCCCn1c(Sc2cc(OC)ccc2C#N)nc2c(N)nccc21` [Compound 18, 2-(4-amino-1-(pent-4-ynyl)-1H-imidazo[4,5-c]pyridin-2-ylthio)-4-methoxybenzonitrile], the IC50 at HSP90 [1] was in the range of 1 to 10 µM.

Regarding `C#CCCCn1c(Sc2cc(F)c(F)cc2I)nc2c(N)nccc21` [Compound 21, 2-(4,5-difluoro-2-iodophenylthio)-1-(pent-4-ynyl)-1H-imidazo[4,5-c]pyridin-4-amine], the concentration for half-maximal inhibition (IC50) at HSP90 [1] was above 10 µM.

For `C#CCCn1c(Sc2cc3c(cc2Br)OCO3)nc2c(N)nccc21` [Compound 22, 2-(6-bromobenzo[d][1,3]dioxol-5-ylthio)-1-(but-3-ynyl)-1H-imidazo[4,5-c]pyridin-4-amine], at HSP90 [1], the IC50 fell in the range of 1 to 10 µM.

For `C#CCCn1c(Sc2cc3c(cc2I)OCO3)nc2c(N)nccc21` [Compound 23, 1-(but-3-ynyl)-2-(6-iodobenzo[d][1,3]dioxol-5-ylthio)-1H-imidazo[4,5-c]pyridin-4-amine], the IC50 on HSP90 [1] lay in the range of 0.1 to 1 µM.

With `C#CCCCCn1c(Sc2cc3c(cc2Br)OCO3)nc2c(N)nccc21` [Compound 24, 2-(6-bromobenzo[d][1,3]dioxol-5-ylthio)-1-(hex-5-ynyl)-1H-imidazo[4,5-c]pyridin-4-amine], the 50% inhibitory concentration (IC50) on HSP90 [1] lay in the range of 1 to 10 µM.

`C#CCCCCn1c(Sc2cc3c(cc2I)OCO3)nc2c(N)nccc21` [Compound 25, 1-(hex-5-ynyl)-2-(6-iodobenzo[d][1,3]dioxol-5-ylthio)-1H-imidazo[4,5-c]pyridin-4-amine] yielded an IC50 on HSP90 [1] of 0.1 to 1 µM.

As to `COc1ccc(I)c(Sc2nc3c(N)nccc3n2CCCC#N)c1` [Compound 26, 4-(4-amino-2-(2-iodo-5-methoxyphenylthio)-1H-imidazo[4,5-c]pyridin-1-yl)butanenitrile], on HSP90 [1], the IC50 lay in the range of 1 to 10 µM.

On HSP90 [1], `N#CCCCn1c(Sc2cc3c(cc2Br)OCO3)nc2c(N)nccc21` [Compound 27, 4-(4-amino-2-(6-bromobenzo[d][1,3]dioxol-5-ylthio)-1H-imidazo[4,5-c]pyridin-1-yl)butanenitrile] came in with a half-inhibitory concentration (IC50) of 1 to 10 µM.

`N#CCCCn1c(Sc2cc3c(cc2I)OCO3)nc2c(N)nccc21` [Compound 28, 4-(4-amino-2-(6-iodobenzo[d][1,3]dioxol-5-ylthio)-1H-imidazo[4,5-c]pyridin-1-yl)butanenitrile] gave an IC50 on HSP90 [1] of 0.1 to 1 µM.

On HSP90 [1], `N#CCCCCn1c(Sc2cc3c(cc2Br)OCO3)nc2c(N)nccc21` [Compound 29, 5-(4-amino-2-(6-bromobenzo[d][1,3]dioxol-5-ylthio)-1H-imidazo[4,5-c]pyridin-1-yl)pentanenitrile] returned an IC50 of 1 to 10 µM.

Consider `N#CCCCCn1c(Sc2cc3c(cc2I)OCO3)nc2c(N)nccc21` [Compound 30, 5-(4-amino-2-(6-iodobenzo[d][1,3]dioxol-5-ylthio)-1H-imidazo[4,5-c]pyridin-1-yl)pentanenitrile], for which, at HSP90 [1], the IC50 lay within 0.1 to 1 µM.

Take `CC(C)NCCCn1c(Sc2cc3c(cc2Br)OCO3)nc2c(N)nccc21` [Compound 51, 2-(6-bromobenzo[d][1,3]dioxol-5-ylthio)-1-(3-(isopropylamino)propyl)-1H-imidazo[4,5-c]pyridin-4-amine]: on HSP90 [1], the IC50 was in the range of 1 to 10 µM.

With `CC(C)NCCCn1c(Sc2cc3c(cc2I)OCO3)nc2c(N)nccc21` [Compound 52, 2-(6-iodobenzo[d][1,3]dioxol-5-ylthio)-1-(3-(isopropylamino)propyl)-1H-imidazo[4,5-c]pyridin-4-amine], on HSP90 [1], the IC50 lay in the range of 0.1 to 1 µM.

For `COc1ccc(Br)c(Sc2nc3c(N)nccc3n2CCCNC(C)C)c1` [Compound 53, 2-(2-bromo-5-methoxyphenylthio)-1-(3-(isopropylamino)propyl)-1H-imidazo[4,5-c]pyridin-4-amine], the IC50 at HSP90 [1] fell in the range of 1 to 10 µM.

As for `COc1ccc(I)c(Sc2nc3c(N)nccc3n2CCCNC(C)C)c1` [Compound 54, 2-(2-iodo-5-methoxyphenylthio)-1-(3-(isopropylamino)propyl)-1H-imidazo[4,5-c]pyridin-4-amine], the IC50 on HSP90 [1] lay in the range of 1 to 10 µM.

Regarding `CC(C)(C)NCCCn1c(Sc2cc3c(cc2I)OCO3)nc2c(N)nccc21` [Compound 58, 1-(3-(tert-butylamino)propyl)-2-(6-iodobenzo[d][1,3]dioxol-5-ylthio)-1H-imidazo[4,5-c]pyridin-4-amine], the IC50 on HSP90 [1] lay in the range of 0.1 to 1 µM.

For `CCC(CC)NCCCn1c(Sc2cc3c(cc2I)OCO3)nc2c(N)nccc21` [Compound 60, 2-(6-iodobenzo[d][1,3]dioxol-5-ylthio)-1-(3-(pentan-3-ylamino)propyl)-1H-imidazo[4,5-c]pyridin-4-amine], at HSP90 [1], the IC50 fell in the range of 0.1 to 1 µM.

The molecule `CC(C)OCCn1c(Sc2cc3c(cc2Br)OCO3)nc2c(N)nccc21` [Compound 61, 2-(6-bromobenzo[d][1,3]dioxol-5-ylthio)-1-(2-isopropoxyethyl)-1H-imidazo[4,5-c]pyridin-4-amine] came in with an IC50 at HSP90 [1] of 0.1 to 1 µM.

Consider `CC(C)OCCn1c(Sc2cc3c(cc2I)OCO3)nc2c(N)nccc21` [Compound 62, 2-(6-iodobenzo[d][1,3]dioxol-5-ylthio)-1-(2-isopropoxyethyl)-1H-imidazo[4,5-c]pyridin-4-amine], for which the IC50 on HSP90 [1] lay within 0.1 to 1 µM.

At HSP90 [1], `COc1ccc(I)c(Sc2nc3c(N)nccc3n2CCOC(C)C)c1` [Compound 64, 2-(2-iodo-5-methoxyphenylthio)-1-(2-isopropoxyethyl)-1H-imidazo[4,5-c]pyridin-4-amine] gave an IC50 of 1 to 10 µM.

Turning to `NC(=O)CCCn1c(Sc2cc3c(cc2I)OCO3)nc2c(N)nccc21` [Compound 66, 4-(4-amino-2-(6-iodobenzo[d][1,3]dioxol-5-ylthio)-1H-imidazo[4,5-c]pyridin-1-yl)butanamide], the IC50 at HSP90 [1] was in the range of 0.1 to 1 µM.

With `NC(=O)CCCCn1c(Sc2cc3c(cc2I)OCO3)nc2c(N)nccc21` [Compound 68, 5-(4-amino-2-(6-iodobenzo[d][1,3]dioxol-5-ylthio)-1H-imidazo[4,5-c]pyridin-1-yl)pentanamide], at HSP90 [1], the IC50 was 0.1 to 1 µM.

For `NC(=O)CCCCCn1c(Sc2cc3c(cc2I)OCO3)nc2c(N)nccc21` [Compound 70, 6-(4-amino-2-(6-iodobenzo[d][1,3]dioxol-5-ylthio)-1H-imidazo[4,5-c]pyridin-1-yl)hexanamide], at HSP90 [1], the IC50 was 0.1 to 1 µM.

With `CC(=O)NCCn1c(Sc2cc3c(cc2I)OCO3)nc2c(N)nccc21` [Compound 72, N-(2-(4-amino-2-(6-iodobenzo[d][1,3]dioxol-5-ylthio)-1H-imidazo[4,5-c]pyridin-1-yl)ethyl)acetamide], on HSP90 [1], the IC50 was in the range of 0.1 to 1 µM.

As to `CC(=O)NCCCn1c(Sc2cc3c(cc2I)OCO3)nc2c(N)nccc21` [Compound 74, N-(3-(4-amino-2-(6-iodobenzo[d][1,3]dioxol-5-ylthio)-1H-imidazo[4,5-c]pyridin-1-yl)propyl)acetamide], on HSP90 [1], the IC50 was in the range of 0.1 to 1 µM.

For `CC(=O)NCCCCn1c(Sc2cc3c(cc2I)OCO3)nc2c(N)nccc21` [Compound 76, N-(4-(4-amino-2-(6-iodobenzo[d][1,3]dioxol-5-ylthio)-1H-imidazo[4,5-c]pyridin-1-yl)butyl)acetamide], the IC50 on HSP90 [1] was in the range of 0.1 to 1 µM.

In turn, `CN(C)Cc1cc2c(cc1Sc1nc3c(N)nccc3n1CCNCC(C)(C)C)OCO2` [Compound 115, 2-(6-((dimethylamino)methyl)benzo[d][1,3]dioxol-5-ylthio)-1-(2-(neopentylamino)ethyl)-1H-imidazo[4,5-c]pyridin-4-amine] yielded an IC50 at HSP90 [1] above 10 µM.

One may read the IC50 as the concentration needed to halve the response being measured. A higher IC50 goes with weaker potency.
